# Results as given in patent publication US20110321190A1, “METHOD OF POSITIVE PLANT SELECTION USING SORBITOL DEHYDROGENASE” (Metabolix, Inc., priority 2009, published 2011).
# “Also recorded” adds a separate entry of the source.
# Experiments:
# [1] = test system: switchgrass embryogenic callus cultures; assay: Agrobacterium-mediated transformation of switchgrass with pMBXS323 and selection on sorbitol as sole carbon source; assay type: cell-based; conditions: medium with sorbitol as sole carbon source; 4-6 wks in the dark at 28° C.
# Method: Agrobacterium-mediated transformation of switchgrass was performed as previously described (Somleva et al., 2002; Somleva, 2006). Highly embryogenic callus cultures were co-cultured with Agrobacterium tumifaciens strain AGL1 (Lazo et al., 1991) harboring pMBXS323 (FIG. 2) for three days in the dark at 28° C. The Agrobacterium treated cultures were incubated on a medium without selection for three to five days and then were transferred to medium containing sorbitol as the sole carbon source. […] These portions were carefully separated from the main callus and transferred to fresh selection medium for further callus proliferation. Upon transfer to regeneration medium containing sorbitol as the sole carbon source, these calli sectors developed green pigmentation within 3-5 days and eventually formed green adventitious shoots and emblings (somatic embryo derived plantlets) (FIGS. 3a-b).
# tomato cells = conditions: examples of the cited Trulson patents; cited from earlier work
# tobacco leaf pieces = assay: Callus induction and shoot regeneration from tobacco leaves on different sugars as sole carbon source; assay type: cell-based; conditions: sole carbon source: sorbitol 16 g/L, fructose 15.8 g/L; 4 weeks in tissue culture
# Method: To test whether sorbitol dehydrogenase can be used as a positive selection marker in tobacco, pieces of tobacco leaves were tested on media containing different sugars as a sole carbon source.
# Sterile grown tobacco leaves were cut into pieces of approximately 0.5-1 cm^2. Leaf pieces were transferred onto MS media containing minimal organics (MSP002 from Caisson Laboratories, North Logan, Utah, USA), 1 mg/L 6-BAP (6-benzylaminopurine) in 1N NaOH, 100 ug/L NAA (α-naphtahalene acetic acid), and the following carbon sources: no sugar; sorbitol, (16 g/L); fructose, (15.8 g/L); sucrose (30 g/L). Explants were maintained in tissue culture for 4 weeks with the following light cycle: 16 hrs in the light at 23° C.; 8 hrs in the dark at 20° C.; relative humidity approximately 45%.
# [2] = test system: switchgrass (Panicum virgatum L. cv. 'Alamo') callus cultures; assay: Growth of switchgrass callus cultures in the presence of different carbon sources; assay type: cell-based; conditions: wild-type callus; sole carbon source: maltose 83.3 mM, fructose 111 mM, sorbitol 41.2 mM; 4 weeks dark incubation at 28° C.
# From the text: The in vitro response of various plants grown on medium supplemented with different sugar sources was investigated. For these purposes, switchgrass (Panicum virgatum L. cv. ‘Alamo’) was chosen as a representative monocot species. Highly embryogenic callus cultures of switchgrass were initiated from mature caryopses according to established procedures (Denchev, P. D. and B. V. Conger, Crop Sci., 34: 1623-1627 (1994)) and transferred to callus multiplication media [media consists of MS basal salts (product#MS002, Caisson Laboratories, North Logan, Utah, USA), 6-benzylaminopurine (BAP, […]), 2,4-dichlorophenoxyacetic acid (2,4-D, […]), and agar (8 g/L agar), pH 5.6]. The media was supplemented with carbon sources as indicated in the following concentrations: maltose (83.3 mM), fructose (111 mM), sorbitol (41.2 mM), or no carbon source. After 4 weeks of dark incubation at 28° C., the callus multiplication ability in the presence of various carbon supplements or no carbon supplement was visually examined.
# [3] = test system: Arabidopsis thaliana leaf and root explants; assay: Calli growth of Arabidopsis thaliana leaf and root explants in the presence of different carbon sources; assay type: cell-based; conditions: sole carbon source as in Example 1; 4 weeks dark incubation at 25° C.
# Method: Growth of cultures of Arabidopsis thaliana, a model dicot species, were also examined to determine if they were able to grow in the presence of sorbitol as a sole carbon source. Leaf and root explants were excised from sterile seedlings of Arabidopsis and were plated on medium containing maltose, fructose, or sorbitol, or no carbon supplement as described in Example 1.
Compound,growth of tomato cells on the carbon source (tomato cells),callus multiplication ability (visually examined) [2],callus growth of root and leaf cultures [3],other results
"pMBXS323: pCAMBIA3300-derived plant transformation plasmid with CaMV35S promoter, hsp70 intron and sdh gene from Pseudomonas sp. KS-E1806",–,–,–,calli clumps showing formation of new growth [1]: 30-50%
OC[C@H]1O[C@H](O[C@H]2O[C@H](CO)[C@@H](O)[C@H](O)[C@H]2O)[C@H](O)[C@@H](O)[C@@H]1O [trehalose],do not grow,–,–,–
OC[C@@H](O)[C@@H](O)[C@H](O)[C@@H](O)CO [sorbitol],do not grow,remained dormant with minimal or no incremental growth; also recorded: reduced growth,little to no growth,callus generation / induction (tobacco leaf pieces): Inhibited callus generation; shoot regeneration (tobacco leaf pieces): inhibited shoot regeneration
OC[C@@H](O)[C@@H](O)[C@H](O)[C@H](O)CO [mannitol],do not grow,–,–,–
OC[C@H]1O[C@H](O[C@H]2[C@H](O)[C@@H](O)[C@H](O)O[C@@H]2CO)[C@H](O)[C@@H](O)[C@@H]1O [maltose],–,able to proliferate normally and displayed considerable callus growth,considerable callus growth,–
OC[C@H]1O[C@@H](O[C@H]2[C@H](O)[C@@H](O)C(O)O[C@@H]2CO)[C@H](O)[C@@H](O)[C@H]1O (stereo partly shown) [lactose],do not grow,–,–,–
OCc1ccccc1O[C@@H]1O[C@H](CO)[C@@H](O)[C@H](O)[C@H]1O [salicin],do not grow,–,–,–
O=C(CO)[C@@H](O)[C@H](O)[C@H](O)CO [fructose],–,able to proliferate normally and displayed considerable callus growth,considerable callus growth,callus generation / induction (tobacco leaf pieces): Callus induction; shoot regeneration (tobacco leaf pieces): shoot regeneration
